In the first experiment the target is MDM2 (Homo sapiens, UniProt Q00987). The experiment is described as follows: MDM2 binding screen of Libraries 3 and 4: displacement of fluorescent probe F-M8 at 750 nM macrocycle. As to conditions: Panel b, Library 3: 63 scaffolds combinatorially acylated with 15 carboxylic acids at 30 picomole scale; displacement of fluorescent peptide probe; macrocycle 750 nM. The gist of the method: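 Competition with nutlin-3a was run using the fluorescein conjugate. Library members came from scaffolds reacted 6 h at room temperature with carboxylic acids (20 equiv.), HBTU and DABCO in DMSO. Quenching was overnight in Tris-Cl pH 7.4 buffer with 0.01% Tween20.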
Sequence of MDM2 (Q00987 whole entry): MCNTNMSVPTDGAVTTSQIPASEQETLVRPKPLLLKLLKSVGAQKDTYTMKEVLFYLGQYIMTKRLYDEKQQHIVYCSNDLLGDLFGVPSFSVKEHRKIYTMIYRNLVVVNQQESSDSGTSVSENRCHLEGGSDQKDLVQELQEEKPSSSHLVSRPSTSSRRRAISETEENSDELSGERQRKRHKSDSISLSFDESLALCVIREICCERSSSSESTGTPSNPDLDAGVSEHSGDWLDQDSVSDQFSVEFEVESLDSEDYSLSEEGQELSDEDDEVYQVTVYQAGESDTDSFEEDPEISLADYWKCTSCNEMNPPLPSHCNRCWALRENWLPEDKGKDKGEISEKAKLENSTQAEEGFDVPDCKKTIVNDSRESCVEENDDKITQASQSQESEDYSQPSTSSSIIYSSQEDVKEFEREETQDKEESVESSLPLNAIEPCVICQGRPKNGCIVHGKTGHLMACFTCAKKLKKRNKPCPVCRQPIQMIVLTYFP
For `CN1C(=O)[C@H](CNC(=O)c2cccc(Oc3ccccc3)c2)NC(=O)C2(CC2)CNC(=O)CCSSCCNC(=O)[C@@H]1Cc1c[nH]c2ccccc12` [X-Amcp-Dap-NMe-Trp + Acid 111], the “fraction of fluorescent probe displaced” value is given as -0.012.

For the compound `CN1C(=O)[C@H](CNC(=O)CCS(=O)(=O)c2ccccc2)NC(=O)C2(CC2)CNC(=O)CCSSCCNC(=O)[C@@H]1Cc1c[nH]c2ccccc12` [X-Amcp-Dap-NMe-Trp + Acid 114], the “fraction of fluorescent probe displaced” value came to 0.055.

Consider `O=C1CCSSCCNC(=O)[C@H](Cc2c[nH]c3ccccc23)NC(=O)[C@H](CNC(=O)c2ccc(Cl)s2)NC(=O)C2(CC2)CN1` [X-Amcp-Dap-Trp + Acid 14], for which the “fraction of fluorescent probe displaced” value came to 0.008.

Regarding `O=C1CCSSCCNC(=O)[C@H](Cc2c[nH]c3ccccc23)NC(=O)[C@H](CNC(=O)c2ccc(Cl)cc2)NC(=O)C2(CC2)CN1` [X-Amcp-Dap-Trp + Acid 25], the “fraction of fluorescent probe displaced” value is on record as 0.048.

Consider `O=C1CCSSCCNC(=O)[C@H](Cc2c[nH]c3ccccc23)NC(=O)[C@H](CNC(=O)c2ccc3ccccc3c2)NC(=O)C2(CC2)CN1` [X-Amcp-Dap-Trp + Acid 107], for which the “fraction of fluorescent probe displaced” value worked out at 0.063.

Consider `O=C(/C=C/c1ccc(Cl)cc1)NC[C@@H]1NC(=O)C2(CC2)CNC(=O)CCSSCCNC(=O)[C@H](Cc2c[nH]c3ccccc23)NC1=O` [X-Amcp-Dap-Trp + Acid 108], for which the “fraction of fluorescent probe displaced” value was 0.068.

`O=C(/C=C/c1ccc(OCc2ccccc2)cc1)NC[C@@H]1NC(=O)C2(CC2)CNC(=O)CCSSCCNC(=O)[C@H](Cc2c[nH]c3ccccc23)NC1=O` [X-Amcp-Dap-Trp + Acid 110]: the “fraction of fluorescent probe displaced” value is recorded as 0.015.

Take `O=C(CCS(=O)(=O)c1ccccc1)NC[C@@H]1NC(=O)C2(CC2)CNC(=O)CCSSCCNC(=O)[C@H](Cc2c[nH]c3ccccc23)NC1=O` [X-Amcp-Dap-Trp + Acid 114]: the “fraction of fluorescent probe displaced” value was -0.00533.

Turning to `O=C1CCSSCCNC(=O)[C@H](Cc2cccc3ccccc23)NC(=O)CN(CCNC(=O)c2ccc(Cl)cc2)C(=O)C2(CC2)CN1` [X-Amcp-N-Aeg-1-NaI + Acid 25], the “fraction of fluorescent probe displaced” value is -0.012.

With `O=C1CCSSCCNC(=O)[C@H](Cc2cccc3ccccc23)NC(=O)CN(CCNC(=O)c2ccc3ccccc3c2)C(=O)C2(CC2)CN1` [X-Amcp-N-Aeg-1-NaI + Acid 107], the “fraction of fluorescent probe displaced” value worked out at 0.011.

On to `O=C(/C=C/c1ccc(Cl)cc1)NCCN1CC(=O)N[C@@H](Cc2cccc3ccccc23)C(=O)NCCSSCCC(=O)NCC2(CC2)C1=O` [X-Amcp-N-Aeg-1-NaI + Acid 108], for which the “fraction of fluorescent probe displaced” value is reported as 0.035.

Turning to `O=C(/C=C/c1ccc2ccccc2c1)NCCN1CC(=O)N[C@@H](Cc2cccc3ccccc23)C(=O)NCCSSCCC(=O)NCC2(CC2)C1=O` [X-Amcp-N-Aeg-1-NaI + Acid 112], the “fraction of fluorescent probe displaced” value is recorded as 0.008.

In the case of `CC(Oc1cccc(Cl)c1)C(=O)NCCN1CC(=O)N[C@@H](Cc2cccc3ccccc23)C(=O)NCCSSCCC(=O)NCC2(CC2)C1=O` (stereo partly shown) [X-Amcp-N-Aeg-1-NaI + Acid 113], the “fraction of fluorescent probe displaced” value came out at 0.028.

In the case of `O=C(CCS(=O)(=O)c1ccccc1)NCCN1CC(=O)N[C@@H](Cc2cccc3ccccc23)C(=O)NCCSSCCC(=O)NCC2(CC2)C1=O` [X-Amcp-N-Aeg-1-NaI + Acid 114], the “fraction of fluorescent probe displaced” value came out at 0.00133.

Consider `O=C1CCSSCCNC(=O)[C@H](Cc2ccc3ccccc3c2)NC(=O)CN(CCNC(=O)c2ccc(Cl)s2)C(=O)C2(CC2)CN1` [X-Amcp-N-Aeg-2-Nal + Acid 14], for which the “fraction of fluorescent probe displaced” value is listed as -0.032.

`O=C1CCSSCCNC(=O)C(Cc2ccc3ccccc3c2)NC(=O)CN(CCNC(=O)C2CC2c2ccccc2)C(=O)C2(CC2)CN1` (stereo not shown) [X-Amcp-N-Aeg-2-Nal + Acid 105]: the “fraction of fluorescent probe displaced” value was -0.041.

Consider `O=C1CCSSCCNC(=O)[C@H](Cc2ccc3ccccc3c2)NC(=O)CN(CCNC(=O)c2ccc3ccccc3c2)C(=O)C2(CC2)CN1` [X-Amcp-N-Aeg-2-Nal + Acid 107], for which the “fraction of fluorescent probe displaced” value amounted to 0.018.

`O=C(/C=C/c1ccc(Cl)cc1)NCCN1CC(=O)N[C@@H](Cc2ccc3ccccc3c2)C(=O)NCCSSCCC(=O)NCC2(CC2)C1=O` [X-Amcp-N-Aeg-2-Nal + Acid 108]: the “fraction of fluorescent probe displaced” value is reported as 0.041.

Regarding `O=C(/C=C/c1ccc(OCc2ccccc2)cc1)NCCN1CC(=O)N[C@@H](Cc2ccc3ccccc3c2)C(=O)NCCSSCCC(=O)NCC2(CC2)C1=O` [X-Amcp-N-Aeg-2-Nal + Acid 110], the “fraction of fluorescent probe displaced” value came out at 0.021.

Consider `CC(Oc1cccc(Cl)c1)C(=O)NCCN1CC(=O)N[C@@H](Cc2ccc3ccccc3c2)C(=O)NCCSSCCC(=O)NCC2(CC2)C1=O` (stereo partly shown) [X-Amcp-N-Aeg-2-Nal + Acid 113], for which the “fraction of fluorescent probe displaced” value worked out at 0.008.

As for `O=C(CCS(=O)(=O)c1ccccc1)NCCN1CC(=O)N[C@@H](Cc2ccc3ccccc3c2)C(=O)NCCSSCCC(=O)NCC2(CC2)C1=O` [X-Amcp-N-Aeg-2-Nal + Acid 114], the “fraction of fluorescent probe displaced” value worked out at 0.028.

As to `O=C1CCSSCCNC(=O)[C@H](Cc2c[nH]c3cc(Cl)ccc23)NC(=O)CN(CCNC(=O)c2ccc(Cl)cc2)C(=O)C2(CC2)CN1` [X-Amcp-N-Aeg-Cl-Trp + Acid 25], the “fraction of fluorescent probe displaced” value is -0.025.

In the case of `O=C(/C=C/c1ccc(OCc2ccccc2)cc1)NCCN1CC(=O)N[C@@H](Cc2c[nH]c3cc(Cl)ccc23)C(=O)NCCSSCCC(=O)NCC2(CC2)C1=O` [X-Amcp-N-Aeg-Cl-Trp + Acid 110], the “fraction of fluorescent probe displaced” value is given as 0.015.

For the compound `O=C1CCSSCCNC(=O)[C@H](Cc2c[nH]c3cc(Cl)ccc23)NC(=O)CN(CCNC(=O)c2cccc(Oc3ccccc3)c2)C(=O)C2(CC2)CN1` [X-Amcp-N-Aeg-Cl-Trp + Acid 111], the “fraction of fluorescent probe displaced” value was -0.00533.

Staying with this experiment, now noted: Panel c, Library 4: best nine scaffolds and 15 additional carboxylic acids; displacement of fluorescent probe.
`O=C(/C=C/c1ccc(F)cc1)NC[C@@H]1NC(=O)C2(CC2)CNC(=O)CCSSCCNC(=O)[C@H](Cc2c[nH]c3ccccc23)NC1=O` [X-Amcp-Dap-Trp + Acid 116]: the “fraction of fluorescent probe displaced” value turned out to be 0.077.

Turning to `CCCOc1ccc(/C=C/C(=O)NC[C@@H]2NC(=O)C3(CC3)CNC(=O)CCSSCCNC(=O)[C@H](Cc3c[nH]c4ccccc34)NC2=O)cc1` [X-Amcp-Dap-Trp + Acid 118], the “fraction of fluorescent probe displaced” value is on record as 0.069.

`O=C(/C=C/c1ccc(Cl)c(Cl)c1)NC[C@@H]1NC(=O)C2(CC2)CNC(=O)CCSSCCNC(=O)[C@H](Cc2c[nH]c3ccccc23)NC1=O` [X-Amcp-Dap-Trp + Acid 119]: the “fraction of fluorescent probe displaced” value is reported as 0.069.

On to `O=C(/C=C/c1cccc(Cl)c1)NC[C@@H]1NC(=O)C2(CC2)CNC(=O)CCSSCCNC(=O)[C@H](Cc2c[nH]c3ccccc23)NC1=O` [X-Amcp-Dap-Trp + Acid 121], for which the “fraction of fluorescent probe displaced” value came to 0.052.

Regarding `O=C(/C=C/c1cccc(C(F)(F)F)c1)NC[C@@H]1NC(=O)C2(CC2)CNC(=O)CCSSCCNC(=O)[C@H](Cc2c[nH]c3ccccc23)NC1=O` [X-Amcp-Dap-Trp + Acid 122], the “fraction of fluorescent probe displaced” value worked out at 0.052.

For `CC(C)c1ccc(/C=C/C(=O)NC[C@@H]2NC(=O)C3(CC3)CNC(=O)CCSSCCNC(=O)[C@H](Cc3c[nH]c4ccccc34)NC2=O)cc1` [X-Amcp-Dap-Trp + Acid 127], the “fraction of fluorescent probe displaced” value is 0.028.

Turning to `O=C1CCSSCCNC(=O)[C@H](Cc2c[nH]c3ccccc23)NC(=O)[C@H](CNC(=O)c2cnc3ccccc3n2)NC(=O)C2(CC2)CN1` [X-Amcp-Dap-Trp + Acid 130], the “fraction of fluorescent probe displaced” value came out at 0.0035.
